From US20120003191A1, “VALPROIC ACID, DERIVATIVES, ANALOGUES, AND COMPOSITIONS INCLUDING SAME AND METHODS FOR THEIR THERAPEUTIC USE” (priority 2009, published 2012)

Experiments:
α7 integrin = test: Western blotting of α7 integrin in muscle extracts of mdx/utrn−/− mice; type: in vivo, mouse; settings: 240 mg/kg i.p. twice daily for 5 weeks
Procedure: (§1) mdx/utrn−/− mice lack both dystrophin and utrophin, and were bred and genotyped as reported in Burkin, et al., Enhanced expression of the alpha 7 beta 1 integrin reduces muscular dystrophy and restores viability in dystrophic mice, J. Cell Biol. 152:1207-18 (2001). 240 mg/kg body weight of VPA was injected intraperitoneally twice daily into mdx/utrn^−/− mice (n=9) starting at 3 weeks of age, for a period of 5 weeks. Control mice were injected with saline (n=9). Body-weights were determined daily.
(§2) Cell lysates of differentiating cells on 60 mm dishes were prepared as follows: the cells were washed twice with PBS and 200 μl Triton X-100 lysis buffer (2% Triton X-100, 20 mM Tris-Cl, pH 7.4, 150 mM NaCl, 1 mM EDTA, 1 mM EGTA, 2.5 mM NaPPi, 1 mM β-glycerophosphate, 1 mM sodium vanadate, 1:200 Protease Inhibitor Cocktail (EMD Chemicals, San Diego, Calif.) and 1 mM PMSF) were added. The cells were scraped and transferred into Eppendorf tubes, the cell suspensions were triturated and centrifuged at 8000×g at 4° C. for 10 minutes, and the supernatants were collected. […] Protein concentrations were determined by the Bradford assay. […] The supernatants were collected and protein concentrations were determined spectrophotometrically at OD260 and OD280. […] ImageQuant analysis software (Molecular Dynamics, Sunnyvale, Calif.) was used to quantify band intensity.

p70S6K = test: Western blotting of activated p70S6K in α7+/− myotubes; type: cell-based, mouse; settings: VPA for 48 or 72 hours
Procedure: α7^+/− myogenic cells were cultured on 1% gelatin-coated plastic plates in Ham's F-10 growth medium (20% FBS, 0.5% chick embryo extract, 5 ng/ml bFGF, 2 mM glutamine, 100 U/ml penicillin and 100 μg/ml streptomycin). After six passages, cells were grown in DMEM containing 20% FBS, 0.5% chick embryo extract, 2 mM glutamine, 100 U/ml penicillin and 100 μg/ml streptomycin. Differentiation was induced by switching the medium to DMEM containing 2% horse serum and antibiotics when cells attained 90% confluence. After 48 hours of differentiation, 2 mM VPA was added and supplied fresh every 24 hours. Wortmannin was used at 100 nM and added fresh every 24 hours.
as §2, with “added.” for “added. The cells were scraped and transferred into Eppendorf tubes, the cell suspensions were triturated and centrifuged at 8000×g at 4° C. for 10 minutes, and the supernatants were collected.”

mdx/utrn−/− mice = test: Contracture assay in mdx/utrn−/− mice; type: in vivo, mouse; settings: 35th day of treatment
Procedure: as §1, with “daily. On the 35th day of treatment, mdx/utrn^−/− mice injected with saline (n=9) or VPA (n=9) were tested for contractures in their hind limbs as follows: mice were placed on a flat table and were lifted by their tails so that their fore-limbs touched the table-surface and their hindquarters were in air. The positions of the hind-limbs were photographed. Normally, mice in this position extend their hind-limbs. The presence of contractures in dystrophic mice prevents full extension.” for “daily.”

In the case of CCCC(CCC)C(=O)O [VPA, valproic acid], the “α7 integrin in muscle extracts, saline versus VPA injected mice” value (α7 integrin) is reported as “did not show changes”, the “levels of activated p70S6K” value (p70S6K) is reported as “higher levels” and the “proportion of mice with contractures” value (mdx/utrn−/− mice; 240 mg/kg i.p. twice daily, n=9) is reported as 11.1%. The “proportion with contractures, saline-injected group higher compared to VPA-injected group” value (mdx/utrn−/− mice) was “approximately 4 fold”.
